Consider 24 compounds from patent US7923465B2, “Cannabinoid receptor ligands, pharmaceutical compositions containing them, and process for their preparation” (priority 2005, dated 2011).

One experiment addresses CB1 (Rattus norvegicus, UniProt P20272). Put plainly: Rat CB1 receptor binding using brain membrane, [3H]SR141716A displacement (Protocol I). On the set-up: CB1 receptor present in a rat brain membrane preparation; from tissue; host or cells: rat brain membrane. The conditions noted are these: rat brain membrane, [3H]SR141716A displacement.
For the next experiment, the target named is hCB2 (Homo sapiens, UniProt P34972). Nature of the experiment: In vitro binding assay using hCB2-CHO membranes, [3H]-CP-55,940 displacement (Protocol IV). Also noted: expressed in transfected cells; host or cells: CHO (hCB2-CHO, generated in-house). The conditions noted are these: hCB2-CHO membranes, [3H]-CP-55,940 displacement. The method, boiled down: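 Displacement of [3H]-CP-55,940 (0.75 nM) from membranes of CHO cells expressing human CB2 (25-50 μg) was measured in Tris-BSA buffer pH 7.4 with 5 mM MgCl2, 1 mM EDTA, 0.1% BSA, 1 h at 30 °C. Test compounds were at 300 nM final; nonspecific binding defined with 0.5 μM CP-55,940. Values are % displacement of specific binding.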

A further experiment addresses hCB1 (Homo sapiens, UniProt P21554). Nature of the experiment: In vitro binding assay using hCB1-CHO membranes, [3H]-CP-55,940 displacement (Protocol II). On the set-up: expressed in transfected cells; host or cells: CHO (hCB1-CHO, generated in-house). On the procedure:
II. Protocol for In Vitro Assay Using hCB1-CHO Membranes
The reaction was set up in a total volume of 200 μl in PEI (Poly(ethyleneimine)) (0.2%) precoated Millipore GFB (Glass Fibre-B) filter plates. 1 mM stocks of test compounds were prepared in DMSO and tested at a final concentration of 300 nM. The non-specific binding was determined by 0.5 μM CP-55, 940. […] The assay mixture (with or without the test compound) was incubated at 37° C. for 1 hour. The reaction was stopped by rapid filtration under vacuum and the radioactivity on the filters was measured by liquid scintillation counting.

hCB1, sequence (P21554 whole entry): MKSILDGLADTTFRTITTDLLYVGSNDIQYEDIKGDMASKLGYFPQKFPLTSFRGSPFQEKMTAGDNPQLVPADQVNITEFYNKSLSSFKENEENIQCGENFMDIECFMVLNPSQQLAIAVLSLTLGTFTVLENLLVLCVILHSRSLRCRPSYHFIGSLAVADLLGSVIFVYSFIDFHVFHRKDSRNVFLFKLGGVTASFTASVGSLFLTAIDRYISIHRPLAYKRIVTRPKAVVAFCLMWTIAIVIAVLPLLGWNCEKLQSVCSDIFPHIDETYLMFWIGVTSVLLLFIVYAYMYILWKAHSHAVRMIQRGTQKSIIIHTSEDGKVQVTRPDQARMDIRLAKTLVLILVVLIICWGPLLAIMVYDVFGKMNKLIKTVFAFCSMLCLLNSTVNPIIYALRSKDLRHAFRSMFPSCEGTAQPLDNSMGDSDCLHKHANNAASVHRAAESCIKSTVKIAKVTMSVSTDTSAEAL
CB1, sequence (P20272 whole entry): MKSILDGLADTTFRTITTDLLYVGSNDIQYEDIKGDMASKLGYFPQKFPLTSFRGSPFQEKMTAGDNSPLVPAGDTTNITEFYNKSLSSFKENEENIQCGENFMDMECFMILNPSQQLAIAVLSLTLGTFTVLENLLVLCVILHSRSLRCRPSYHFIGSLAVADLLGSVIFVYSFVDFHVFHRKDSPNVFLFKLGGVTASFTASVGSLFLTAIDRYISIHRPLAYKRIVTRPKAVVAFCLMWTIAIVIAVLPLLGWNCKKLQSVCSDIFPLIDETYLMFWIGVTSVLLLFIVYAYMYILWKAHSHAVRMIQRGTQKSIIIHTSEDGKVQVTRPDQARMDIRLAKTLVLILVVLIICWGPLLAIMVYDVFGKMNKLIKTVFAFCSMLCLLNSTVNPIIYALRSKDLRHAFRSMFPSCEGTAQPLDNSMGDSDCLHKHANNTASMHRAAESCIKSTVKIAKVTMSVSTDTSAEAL
hCB2, sequence (P34972 whole entry): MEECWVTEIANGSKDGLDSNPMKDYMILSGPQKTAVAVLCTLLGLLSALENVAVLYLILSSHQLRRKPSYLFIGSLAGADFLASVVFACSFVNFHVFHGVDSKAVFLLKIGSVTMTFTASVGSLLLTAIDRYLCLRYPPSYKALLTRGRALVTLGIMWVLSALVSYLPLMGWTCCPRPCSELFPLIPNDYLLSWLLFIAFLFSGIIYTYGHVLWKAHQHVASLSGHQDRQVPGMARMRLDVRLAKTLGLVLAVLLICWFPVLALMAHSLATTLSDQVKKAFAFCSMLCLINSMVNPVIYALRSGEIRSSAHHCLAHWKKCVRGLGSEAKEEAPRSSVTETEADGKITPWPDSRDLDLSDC

As to `Cn1nc(C(=O)NN2CCCCC2)c2c1C1CC3CC(CC2C3)C1` [Example 189b, N(7)-Piperidino-5-methyl-5,6-diazatetracyclo[7.3.1.1^3,11.0^4,8]tetradeca-4(8)-6-diene-7-carboxamide], at CB1, the “% Displacement Protocol I” value is recorded as 3%. Further, at hCB2, the “% Displacement Protocol IV” value is listed as 2.56%. The “% Displacement Protocol II” value at hCB1 amounted to 24.03%.
On to `O=C(NNc1ccc(Cl)cc1)c1nn(-c2ccc(Cl)cc2)c2c1C1CC3CC(C1)CC2C3` [Example 125], for which the “% Displacement Protocol I” value at CB1 amounted to 52.7%. Moreover, the “% Displacement Protocol IV” value on hCB2 worked out at 5.04%. Besides, on hCB1, the “% Displacement Protocol II” value amounted to 22.07%.
For `O=C(NCc1ccccc1)c1nn(-c2ccccc2Cl)c2c1C1CC3CC(C1)CC2C3` [Example 182, N(7)-Benzyl-5-(2-chlorophenyl)-5,6-diazatetracyclo[7.3.1.1^3,11.0^4,8]tetradeca-4(8)-6-diene-7-carboxamide], in that order: 39.9%, 12.78% and 19.35%.
Take `COC(=O)[C@H](NC(=O)c1nn(-c2ccc(F)cc2F)c2c1C1CCC2C1)c1ccccc1` (stereo partly drawn) [Example 319, Methyl (2R)-2-[5-(2,4-difluorophenyl)-4,5-diazatricyclo[5.2.1.0.^2,6]deca-2(6),3-dien-3-ylcarboxamido]-2-phenylethanoate]: on hCB2, the “% Displacement Protocol IV” value stood at 86.68%. Further, the “% Displacement Protocol II” value at hCB1 is 88.02%.
For the compound `O=C(NC12CC3CC(CC(C3)C1)C2)c1nn(-c2ccc(F)cc2F)c2c1C1CC3CC(C1)CC2C3` [Example 144, N(7)-(Adamantan-1-yl)-5-(2,4-difluorophenyl)-5,6-diazatetracyclo[7.3.1.1^3,11.0^4,8]tetradeca-4(8)-6-diene-7-carboxamide], the “% Displacement Protocol IV” value on hCB2 was 69.24%. Besides, the “% Displacement Protocol II” value on hCB1 amounted to 40.13%.
Turning to `C[C@@H](NC(=O)c1nn(-c2ccc(Cl)cc2)c2c1C1CC3CC(C1)CC2C3)c1ccccc1` [Example 118], at hCB2, the “% Displacement Protocol IV” value came to 61.23%. Also, the “% Displacement Protocol II” value on hCB1 was determined as 45.43%.
Taken in the same sequence, the figures for `CCCCCn1nc(C(=O)NC(C)(C)c2ccccc2)c2c1C1CC3CC(CC2C3)C1` [Example 190b, N(7)-(1-Methyl-1-phenylethyl)-5-pentyl-5,6-diazatetracyclo[7.3.1.1^3,11.0^4,8]tetradeca-4(8)-6-diene-7-carboxamide] were 96.07% and 100%.
Taken in the same sequence, the figures for `C[C@H](NC(=O)c1nn(-c2ccc(F)cc2F)c2c1C1CC3CC(C1)CC2C3)c1ccccc1` [Example 146] were 68.16% and 60.51%.
Turning to `O=C(NN1CCOCC1)c1nn(-c2ccc(F)cc2F)c2c1C1CCC2C1` (stereo not drawn) [Example 312, 4-[5-(2,4-Difluorophenyl)-4,5-diazatricyclo[5.2.1.0^2,6]deca-2(6),3-dien-3-ylcarboxamido]morpholine], the “% Displacement Protocol IV” value at hCB2 was 4.47%. At hCB1, the “% Displacement Protocol II” value came to 10.97%.
Taken in the same sequence, the figures for `CC1(C)[C@@H]2CC[C@@](C)(C2)[C@@H]1NC(=O)c1nn(-c2ccc(F)cc2F)c2c1C1CC3CC(C1)CC2C3` [Example 145, N(7)-(1S,2endo-1,3,3-Trimethyl-bicyclo[2.2.1]hept-2-yl)-5-(2,4-difluorophenyl)-5,6-diazatetracyclo[7.3.1.1^3,11.0^4,8]tetradeca-4(8)-6-diene-7-carboxamide] were 75.88% and 54.01%.
For `COC(=O)[C@H](NC(=O)c1nn(-c2ccc(F)cc2F)c2c1C1CC3CC(C1)CC2C3)c1ccccc1` [Example 154, Methyl(2R)-2-[7-(2,4-difluorophenyl)-6,7-diazatetracyclo[7.3.1.1^3,11.0^4,8]tetradeca-4(8),5-dien-5-ylcarboxamido]-2-phenylethanoate], in that order: 70.19% and 96.1%.
For the compound `O=C(NN1CCCCC1)c1nn(-c2ccccc2)c2c1C1CC3CC(C1)CC2C3` [Example 169, N(7)-piperidino-5-phenyl-5,6-diazatetracyclo[7.3.1.1^3,11.0^4,8]tetradeca-4(8)-6-diene-7-carboxamide], on CB1, the “% Displacement Protocol I” value stood at 19%. The “% Displacement Protocol II” value at hCB1 was determined as 29.65%.
As to `CN(NC(=O)c1nn(-c2ccc(Cl)cc2)c2c1C1CC3CC(C1)CC2C3)c1ccc(Cl)cc1Cl.Cl` [Example 128], the “% Displacement Protocol I” value on CB1 is on record as 83%. Besides, at hCB1, the “% Displacement Protocol II” value amounted to 37.28%.
With `COC(=O)[C@@H](NC(=O)c1nn(-c2ccc(F)cc2F)c2c1C1CC3CC(C1)CC2C3)c1ccccc1` [Example 155, Methyl(2S)-2-[7-(2,4-difluorophenyl)-6,7-diazatetracyclo[7.3.1.1^3,11.0^4,8]tetradeca-4(8),5-dien-5-ylcarboxamido]-2-phenylethanoate], the “% Displacement Protocol IV” value at hCB2 stood at 72.38%. Besides, the “% Displacement Protocol II” value on hCB1 is 96.65%.
On to `O=C(NC12CC3CC(CC(C3)C1)C2)c1nn(-c2ccc(F)cc2)c2c1C1CC3CC(C1)CC2C3` [Example 158, N(7)-(Adamantan-1-yl)-5-(4-fluorophenyl)-5,6-diazatetracyclo[7.3.1.1^3,11.0^4,8]tetradeca-4(8)-6-diene-7-carboxamide], for which the “% Displacement Protocol IV” value at hCB2 turned out to be 95.4%. Also, the “% Displacement Protocol II” value on hCB1 stood at 70.12%.
Taken in the same sequence, the figures for `COC(=O)[C@@H](NC(=O)c1nn(-c2ccc(F)cc2F)c2c1C1CCC2C1)c1ccccc1` (stereo partly drawn) [Example 301, Methyl(2S)-2-[5-(2,4-difluorophenyl)-4,5-diazatricyclo[5.2.1.0.^2,6]deca-2(6),3-dien-3-ylcarboxamido]-2-phenylethanoate] were 82.09% and 82.54%.
As to `O=C(NCc1ccc(C(F)(F)F)cc1)c1nn(-c2ccc(Cl)cc2)c2c1C1CCC2C1` (stereo not drawn) [Example 227, N(3)-(4-Trifluoromethylbenzyl)-1-(4-chlorophenyl)-4,5,6,7-tetrahydro-H-4,7-methano-indazole-3-carboxamide], on CB1, the “% Displacement Protocol I” value was determined as 25.3%. At hCB1, the “% Displacement Protocol II” value was determined as 3.51%.
Taken in the same sequence, the figures for `CN(NC(=O)c1nn(-c2ccc(Cl)cc2Cl)c2c1C1CCC2c2ccccc21)C1CCCCC1` (stereo not drawn) [Example 504, N(12)-[(N′-Cyclohexyl-N′-methyl)amino]-10-(2,4-dichlorophenyl)-10,11-diazatetracyclo[6.5.2.0^2,7.0^9,13]pentadeca-2,4,6,9(13),11-pentaene-12-carboxamide] were 79.7% and 62.9%.
`CC(C)(NC(=O)c1nn(-c2ccc(F)cc2F)c2c1C1CCC2(C)C1(C)C)c1ccccc1` (stereo not drawn) [Example 407]: the “% Displacement Protocol IV” value on hCB2 was found to be 88.44%. The “% Displacement Protocol II” value at hCB1 was determined as 87.28%.
As for `O=C(NNc1ccc(Cl)c(Cl)c1)c1nn(-c2ccc(Cl)cc2)c2c1C1CCC2C1` (stereo not drawn) [Example 231, N(3)-[(3,4-Dichlorophenyl)amino]-1-(4-chlorophenyl)-4,5,6,7-tetrahydro-H-4,7-methano-indazole-3-carboxamide], the “% Displacement Protocol I” value on CB1 is recorded as 31.9%. Also, the “% Displacement Protocol II” value at hCB1 is listed as 30.79%.
Regarding `CC1(C)C2CC[C@@](C)(C2)C1NC(=O)c1nn(-c2ccc(Cl)cc2)c2c1C1CC3CC(C1)CC2C3` (stereo partly drawn) [Example 110, N(7)-(1S,2endo-1,3,3-Trimethyl-bicyclo[2.2.1]hept-2-yl)-5-(4-chlorophenyl)-5,6-diazatetracyclo[7.3.1.1^3,11.0^4,8]tetradeca-4(8)-6-diene-7-carboxamide], the “% Displacement Protocol IV” value on hCB2 worked out at 60.7%. Also, the “% Displacement Protocol II” value at hCB1 is 37.69%.
As to `O=C(NCc1ccc(Cl)cc1)c1nn(-c2ccc(Cl)cc2)c2c1C1CC3CC(C1)CC2C3` [Example 112, N(7)-(4*Chlorobenzyl)-5-(4-chlorophenyl)-5,6-diazatetracyclo[7.3.1.1^3,11.0^4,8]tetradeca-4(8)-6-diene-7-carboxamide], on CB1, the “% Displacement Protocol I” value was 59.9%. Besides, at hCB1, the “% Displacement Protocol II” value was 25.76%.
For `O=C(Nc1ccccc1)c1nn(-c2ccccc2)c2c1C1CC3CC(C1)CC2C3` [Example 168, N(7)-Phenyl-5-phenyl-5,6-diazatetracyclo[7.3.1.1^3,11.0^4,8]tetradeca-4(8)-6-diene-7-carboxamide], in that order: 37% and 11.47%.
Turning to `COC(=O)[C@@H](NC(=O)c1nn(-c2ccc(F)cc2F)c2c1C1CCC2C1)c1ccc(F)cc1` (stereo partly drawn) [Example 326, Methyl (2S)-2-[5-(2,4-difluorophenyl)-4,5-diazatricyclo[5.2.1.0.^2,6]deca-2(6),3-dien-3-ylcarboxamido]-2-(4-fluorophenyl)ethanoate], the “% Displacement Protocol IV” value on hCB2 came out at 99.18%. In addition, at hCB1, the “% Displacement Protocol II” value turned out to be 73.99%.
